One series deals with mated hamsters. The experiment in a line: abortifacient test in mated hamsters (Labhsetwar). Particulars: Mesocricetus auratus, sc. The series is classed as in vivo, hamster. On the procedure:
Furthermore, when the compounds of this invention are tested by the method of A. P. Labhsetwar, Nature 230, 528 (1971) whereby the compound is given subcutaneously on a daily basis to mated hamsters on days 4, 5 and 6 of pregnancy, thereafter the animals being sacrificed on day 7 of pregnancy and the number of abortions counted, the compounds are shown to have abortifacient properties.

A further series relates to gastric secretion. Particulars: in vivo; cited from earlier work.
The test system of series [1] is histamine-induced bronchoconstriction. The experiment in a line: histamine-induced bronchoconstriction in the anesthetized guinea pig (Greenberg and Beaulieu). The series is classed as in vivo. On the procedure:
(§1) Maximal effect was seen within 3 minutes after 10 μg/kg and returned to the control level within 50 minutes. Hypotension of short duration (1 - 2 minutes) occurred following this mode of administration. […] Maximal effect was seen within 3 minutes after 0.1 μg/kg and returned to the control level within 70 minutes.
Percentage inhibition of histamine-induced bronchoconstriction in the anesthetized guinea pig after intravenous administration of trans-7-[2-(3-hydroxy-3-methyl-1-octenyl)-5-oxocyclopentyl]heptanoic acid (Isomer B'). Each value is the mean of 8 - 12 experiments.
Percentage inhibition of histamine-induced bronchoconstriction in the anesthetized guinea pig after aerosol administration of trans-7-[2-(3-hydroxy-3-methyl-1-oxtenyl)-5-oxocyclopentyl]heptanoic acid (Isomer B'). Each value is the mean of 8 - 12 experiments.

Another series has as its system horse. The experiment in a line: synchronization of estrus and regulation of ovulation in the horse. The series is classed as in vivo. The settings on record: given on second and third day before expected estrus; rectal palpation. From the text:
It is often desirable to synchronize estrus in domestic animals, for example, horses, cattle, sheep, swine or dogs, in order to be able to perform artificial insemination or mating with a male of the desired genetic quality under optimum conditions. In the past, this has been done by administering to the animals an ovulation-inhibiting agent, withdrawing administration of said agent shortly before the date chosen for mating or artificial insemination, and relying either upon the natural production of LH and FSH to induce ovulation and to produce estrus or by administering gonadotrophins. However, this procedure was not entirely satisfactory because ovulation at a predetermined time occured only in a certain proportion of the animals when gonadotrophins were not used. On the other hand, the high cost of gonadotrophins and side effects encountered in their administration needs this method impractical. It is now possible to obtain substantially complete synchronization of ovulation and of estrus, by treating the animals in a given group with the compound of formula 1 before the predetermined period of time for mating or artificial insemination, so as to obtain ovulation and estrus within that time interval. The delay in the onset of ovulation and estrus following administration of the compound of this invention varies with the species of animal. […]

In a further series the test system is blood pressure. Briefly: blood pressure after administration in the anesthetized guinea pig. The series is classed as in vivo. Particulars: after aerosol administration. How it is done:
as §1

Series [2] deals with guinea pig tracheal strip. The experiment in a line: relaxation of carbachol-induced contractions of isolated guinea pig tracheal strips. Particulars: for RELAXATION of tracheal strip: carbachol-contracted, mean of 12 strips. The source says: The relaxation of the guinea pig tracheal strip by trans-7-[2-(3-hydroxy-3-methyl-1-octenyl)-5-oxocyclopentyl]heptanoic acid (Isomer B'). Each value is the mean of the responses of 12 strips.

Series [3] has as its system pregnancy. The settings on record: rhesus monkey; cited from earlier work.
Series [4] deals with pregnancy. The settings on record: human; cited from earlier work.
The conditions of series [5]: basic and acidic conditions; cited from earlier work.
For series [6], the system named is secretion of gastric acid. Briefly: inhibition of gastric acid secretion in rats (Shay et al.). The format is in vivo. The settings on record: po; orally, rat. How it is done:
For example, when trans,cis-7-[2-(3-hydroxy-4,4-dimethyl-1-octenyl)-5-oxocyclopentyl]-5-heptanoic acid (Example 68) is given orally to the rat according to the aforementioned method, an ED50 of about 1.0 mg/kg is obtained for the compound.

Setting [7] is: 168 h, subcutaneous, days 4, 5 and 6 of pregnancy, sacrificed day 7, read-out: dose giving complete abortion in all animals.

Where two headings read alike, the source gives them in different places. Where only a bound is given, the exact number is not on record here.

For `CCCCCC(C)(O)/C=C/[C@H]1CCC(O)[C@@H]1C/C=C\CCCC(=O)O` (relative stereo) [trans, cis-7[2-hydroxy-5-(3-hydroxy-3-methyl-1-octenyl)cyclopentyl]-5-heptenoic acid], the ED100 in the series with mated hamsters (setting [7]) is 0.5 mg/kg/day.

For the compound `CCCCCC(C)(O)/C=C/[C@H]1CCC(=O)[C@@H]1CC/C=C\CCC(=O)O` (relative stereo) [trans, cis-7-[2-(3-hydroxy-3-methyl-1-octenyl)-5-oxocyclopentyl]-4-heptenoic acid], the ED100 in the series on mated hamsters (setting [7]) is 1 mg/kg/day.

For `CCCCC(C)(C)[C@H](O)/C=C/[C@H]1[C@H](O)CC(=O)[C@@H]1C/C=C\CCCC(=O)OC` [16,16-dimethyl PGE2 methyl ester], the “effect on gastric secretion” value in the series with gastric secretion is listed as “effective in inhibiting gastric acid secretion”.

For `CCCCC[C@@](C)(O)/C=C/[C@H]1[C@H](O)CC(=O)[C@@H]1C/C=C\CCCC(=O)O` [15(R)-methyl], the “effect on gastric secretion” value with gastric secretion was “inhibit gastric secretion”.

Regarding `CCCCCC(C)(O)/C=C/[C@H]1CCC(=O)[C@@H]1C/C=C\CCCC(=O)O` (relative stereo) [trans, cis-7-[2-(3-Hydroxy-3-methyl-1-octenyl)-5-oxocyclopentyl]-5-heptenoic Acid], the ED100 in the series on mated hamsters (setting [7]) was 2.5 mg/kg/day.

In the case of `CCCCCC(C)(O)CCC1CCC(=O)C1CCCCCCC(=O)O` (centres unmarked) [2-(3-hydroxy-3-methyl-octyl)-5-oxocyclopentaneheptanoic acid, reference compound], the ED100 in the series with mated hamsters (comparison with saturated 15-methyl analog, above test, read-out: dose below which complete abortion is not caused) was no less than 30 mg/kg/day.

As to `CCCCCC(C)(O)/C=C/[C@H]1CCC(=O)[C@@H]1CCCCCCC(=O)O` (relative stereo) [trans-7-[2-(3-hydroxy-3-methyl-1-octenyl)-5-oxocyclopentyl]-heptanoic acid], in series [1] (anesthetized guinea pig), the “protection against histamine-induced bronchospasm” value is “significant protection”.

As to `CCCCCC(C)(O)/C=C/[C@H]1CC[C@H](O)[C@@H]1C/C=C\CCCC(=O)O` (relative stereo) [trans, cis-7-[2α-hydroxy-5-(3-hydroxy-3-methyl-1-octenyl)cyclopentyl]-5-heptenoic acid], the “ovulation after estrus (majority of animals)” value in the series on horse was “from the fourth to the sixth day”.

The term inhibition denotes how much of the control response was suppressed. A high value points to a strong effect. `CCCCCC(C)(O)/C=C/[C@H]1CCC(=O)[C@@H]1CCCCCCC(=O)O` (single isomer, unassigned) [Isomer B', trans-7-[2-(3-hydroxy-3-methyl-1-octenyl)-5-oxocyclopentyl]-heptanoic acid] showed an inhibition at 1e-05 mg/kg in series [1] (Cavia porcellus, intravenous, 0.01 μg/kg, mean of 8 - 12 experiments) of 14.8 ± 2%. The compound further gave an inhibition at 0.0001 mg/kg in [1] (Cavia porcellus, intravenous, 0.1 μg/kg, mean of 8 - 12 experiments) of 46.4 ± 5.5%. The inhibition at 0.001 mg/kg in series [1] (Cavia porcellus, intravenous, 1.0 μg/kg, mean of 8 - 12 experiments) was 66 ± 5.4%. The same compound displayed an inhibition at 0.01 mg/kg in series [1] (Cavia porcellus, intravenous, 10.0 μg/kg, mean of 8 - 12 experiments) of 81.9 ± 5.2%. For the same compound, the “inhibition of histamine-induced bronchoconstriction, dose relation” value is “linear dose related inhibition” in series [1] (aerosol) and “linear dose related inhibitions” in series [1] (intravenous). The entries for the “times more potent than prostaglandin E2 or 11-deoxy-prostaglandin E1” value in [1] (aerosol) and in [1] (intravenous) were 78 times and 32 times, respectively. For the same compound, the “time of maximal effect” value is no more than 3 min in series [1] (aerosol, after 0.1 μg/kg) and no more than 3 min in series [1] (intravenous, after 10 μg/kg). Besides, the “time of return to the control level” value in [1] (aerosol, after 0.1 μg/kg) is no more than 70 min; in [1] (intravenous, after 10 μg/kg), no more than 50 min. Besides, the “% INHIBITION of histamine-induced bronchoconstriction” value in series [1] (aerosol, total dose 10^-1 μg, mean of 8 - 12 experiments) is recorded as 78.1 ± 4.2%; in series [1] (aerosol, total dose 10^-2 μg, mean of 8 - 12 experiments) it was 66.8 ± 4.7%; in [1] (aerosol, total dose 10^-3 μg, mean of 8 - 12 experiments) it was 49.3 ± 5.0%; in [1] (aerosol, total dose 10^-4 μg, mean of 8 - 12 experiments), 38.6 ± 5.9%; in series [1] (aerosol, total dose 10^-5 μg, mean of 8 - 12 experiments) it was 20.9 ± 5.1%. Further, the “changes in the blood pressure” value in the series on blood pressure is “no notable changes in the blood pressure”. Moreover, the “RELAXATION of tracheal strip” value in series [2] (1.0 μg/ml) is on record as 0.2 ± 0.2 g; in series [2] (3.0 μg/ml) it was 0.39 ± 0.04 g; in [2] (10 μg/ml) it was 0.79 ± 0.1 g; in series [2] (30 μg/ml) it was 1.29 ± 0.1 g. The “relaxation of the tracheal strip, dose relation” value in series [2] (cumulative concentrations) is listed as “linear dose related relaxation”.

Regarding `CCCCC[C@](C)(O)/C=C/[C@H]1[C@H](O)CC(=O)[C@@H]1C/C=C\CCCC(=O)O` [15(S)-methyl PGE2], the “effect on gastric secretion” value in the series with gastric secretion is given as “inhibit gastric secretion”.

Consider `CCCCC[C@](C)(O)/C=C/[C@@H]1[C@@H](C/C=C\CCCC(=O)O)[C@@H](O)C[C@H]1O` [15-Methyl PGF2α], for which the effect on pregnancy entry in the series on pregnancy [3] and in the series with pregnancy [4] was “interrupt pregnancy” each time.

For the compound `CCCCCC(C)(O)/C=C/[C@H]1[C@H](O)CC(=O)[C@@H]1C/C=C\CCCC(=O)OC` (some centres unmarked) [15-methyl PGE2 methyl esters], the effect on pregnancy entry with pregnancy [3] and in the series with pregnancy [4] was “interrupt pregnancy” in each case.

In the case of `CCCCC[C@H](O)/C=C/[C@H]1[C@H](O)CC(=O)[C@@H]1C/C=C\CCCC(=O)O` [PGE2], the “dehydration of the 11-hydroxy group” value in series [5] was “participates readily in dehydration reactions”.

Usually ED50 stands for the midpoint of the dose-response relation. A lower ED50 goes with greater potency. Take `CCCCC(C)(C)C(O)/C=C/[C@H]1CCC(=O)[C@@H]1C/C=C\CCCC(=O)O` (relative stereo) [trans, cis-7-[2-(3-hydroxy-4,4-dimethyl-1-octenyl)-5-oxocyclopentyl]-5-heptenoicacid]: the ED50 in series [6] is roughly 1 mg/kg.

The values above are taken from patent publication US4048328A, “Alkyl derivatives of 4,5-dehydro PGF1” (American Home Products Corporation, priority 1976, dated 1977).
